Drawing on US6653300B2, “Pyrazole compounds useful as protein kinase inhibitors” (Vertex Pharmaceuticals Incorporated, priority 2000, dated 2003), this text covers Ki and melting point for 31 molecules.

The target of one series is T1, Aurora-2 (Homo sapiens, UniProt O14965).
T1 sequence (O14965 1-403): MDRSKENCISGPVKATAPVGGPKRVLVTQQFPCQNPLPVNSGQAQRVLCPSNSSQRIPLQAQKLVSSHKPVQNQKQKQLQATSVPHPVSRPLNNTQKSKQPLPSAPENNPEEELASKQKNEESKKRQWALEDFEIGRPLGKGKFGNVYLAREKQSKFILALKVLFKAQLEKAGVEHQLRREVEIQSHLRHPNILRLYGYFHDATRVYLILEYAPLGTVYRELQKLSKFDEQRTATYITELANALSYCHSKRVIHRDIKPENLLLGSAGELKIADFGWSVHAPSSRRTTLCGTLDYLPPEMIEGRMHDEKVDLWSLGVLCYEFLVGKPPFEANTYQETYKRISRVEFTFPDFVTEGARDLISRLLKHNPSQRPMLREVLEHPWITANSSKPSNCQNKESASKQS
Nature of the series: Ki determination for the inhibition of Aurora-2 (coupled enzyme assay). The class given is biochemical. Conditions: 70 nM Aurora-2, 30° C. On the procedure: Compounds were screened in the following manner for their ability to inhibit Aurora-2 using a standard coupled enzyme assay (Fox et al (1998) Protein Sci 7, 2249).
To an assay stock buffer solution containing 0.1M HEPES 7.5, 10 mM MgCl2, 1 mM DTT, 25 mM NaCl, 2.5 mM phosphoenolpyruvate, […], 30 mg/ml pyruvate kinase, 10 mg/ml lactate dehydrogenase, […], and 800 μM peptide (LRRASLG, American Peptide, Sunnyvale, Calif.) was added a DMSO solution of a compound of the present invention to a final concentration of 30 μM. The resulting mixture was incubated at 30° C. for 10 min. The reaction was initiated by the addition of 10 μL of Aurora-2 stock solution to give a final concentration of 70 nM in the assay. The rates of reaction were obtained by monitoring absorbance at 340 nm over a 5 minute read time at 30° C. using a BioRad Ultramark plate reader (Hercules, Calif.). The Ki values were determined from the rate data as a function of inhibitor concentration.

The target of a further series is T2, GSK-3β (AA 1-420) (Homo sapiens, UniProt P49841).
T2 construct: GSK-3β (AA 1-420)
Nature of the series: Ki determination for the inhibition of GSK-3 (coupled enzyme system). It counts as biochemical. Conditions: 20 μM ATP, 20 nM GSK-3β, 30° C. The protocol: Compounds were screened for their ability to inhibit GSK-3β (AA 1-420) activity using a standard coupled enzyme system (Fox et al. (1998) Protein Sci. 7, 2249). Reactions were carried out in a solution containing 100 mM HEPES (pH 7.5), 10 mM MgCl2, 25 mM NaCl, 300 μM NADH, 1 mM DTT and 1.5% DMSO. Final substrate concentrations in the assay were 20 μM ATP (Sigma Chemicals, St Louis, Mo.) and 300 μM peptide (HSSPHQS (PO3H2) EDEEE, American Peptide, Sunnyvale, Calif.). Reactions were carried out at 30° C. and 20 nM GSK-3β. Final concentrations of the components of the coupled enzyme system were 2.5 mM phosphoenolpyruvate, 300 μM NADH, 30 μg/ml pyruvate kinase and 10 μg/ml lactate dehydrogenase.
An assay stock buffer solution was prepared containing all of the reagents listed above with the exception of ATP and the test compound of interest. The assay stock buffer solution (175 μl) was incubated in a 96 well plate with 5 μl of the test compound of interest at final concentrations spanning 0.002 μM to 30 μM at 30° C. for 10 min. […] The reaction was initiated by the addition of 20 μl of ATP (final concentration 20 μM). Rates of reaction were obtained using a Molecular Devices Spectramax plate reader (Sunnyvale, Calif.) over 10 min at 30° C. The Ki values were determined from the rate data as a function of inhibitor concentration.

As a reminder, the pKi is the negative decadic logarithm of the Ki, by convention in mol/L. Low values mean a high Ki, high ones a low Ki. The term melting point denotes the temperature, or range, at which the solid turns liquid.

pKi: −log10 of the molar value. Bounds are passed on as bounds.

T2 sequence (P49841 whole entry, the tested form may be a part): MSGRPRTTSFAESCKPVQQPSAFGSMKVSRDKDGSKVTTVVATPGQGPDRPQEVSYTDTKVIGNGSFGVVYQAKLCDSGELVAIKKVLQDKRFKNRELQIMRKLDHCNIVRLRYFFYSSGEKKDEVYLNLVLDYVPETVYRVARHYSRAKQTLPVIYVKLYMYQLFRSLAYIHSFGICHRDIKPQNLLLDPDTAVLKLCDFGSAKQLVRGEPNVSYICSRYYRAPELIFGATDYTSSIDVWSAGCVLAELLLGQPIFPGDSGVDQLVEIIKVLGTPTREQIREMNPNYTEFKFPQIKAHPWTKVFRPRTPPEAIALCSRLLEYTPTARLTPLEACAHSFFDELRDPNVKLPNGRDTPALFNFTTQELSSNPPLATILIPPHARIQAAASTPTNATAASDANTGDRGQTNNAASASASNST

Molecule `CSc1nc(Nc2cc(C)[nH]n2)cc(N2CCN(C)CC2)n1` [IIIa-14, [6-(4-Methylpiperazin-1-yl)-2-methylsulfanyl-pyrimidin-4-yl]-(5-methyl-2H-pyrazol-3-yl)-amine] had a pKi at Aurora-2 of 6.00 to 7.00.

The molecule `Cc1cc(Nc2cc(-c3ccccc3)nc(Sc3ccc(NS(=O)(=O)C(C)C)cc3)n2)n[nH]1` [IIIa-24, [2-(4-Isopropanesulfonylamino-phenyl-sulfanyl)-6-phenyl-pyrimidin-4-yl]-(5-methyl-2H-pyrazol-3-yl)-amine] displayed a melting point of 255 to 257 °C. In addition, on GSK-3β (AA 1-420), the pKi was above 7.00. The matching figures for `Cc1cc(Nc2cc(N3CCOCC3)nc(SCc3cccc(Cl)c3)n2)n[nH]1` [IIIa-26, [2-(3-Chloro-benzylsulfanyl)-6-morpholin-4-yl-pyrimidin-4-yl]-(5-methyl-2H-pyrazol-3-yl)-amine]: 224 to 225 °C and 6.00 to 7.00. The matching figures for `COCCNc1cc(Nc2cc(C)[nH]n2)nc(SCc2cccc(Cl)c2)n1` [IIIa-27, [2-(3-Chloro-benzylsulfanyl)-6-(2-methoxy-ethylamino)-pyrimidin-4-yl]-(5-methyl-2H-pyrazol-3-yl)-amine]: 101 to 102 °C and above 7.00. In turn, `CCC(=O)Nc1ccc(Sc2nc(Nc3cc(C4CC4)[nH]n3)cc(-c3ccccc3)n2)cc1` [IIIa-33, (5-Cyclopropyl-2H-pyrazol-3-yl)-[6-phenyl-2-(4-propionylamino-phenyl-sulfanyl)-pyrimidin-4-yl]-amine] gave a melting point of 208 to 209 °C. The molecule further had a pKi at GSK-3β (AA 1-420) of 6.00 to 7.00. As to `Cc1cc(Nc2cc(N3CCOCC3)nc(SCc3ccc4ccccc4c3)n2)n[nH]1` [IIIa-42, (5-Methyl-2H-pyrazol-3-yl)-[6-morpholin-4-yl-2-(naphthalene-2-ylmethylsulfanyl)-pyrimidin-4-yl]-amine], the pKi at GSK-3β (AA 1-420) was 6.00 to 7.00; at Aurora-2, 5.00 to 6.00. `c1ccc(-c2cc(Nc3cc(C4CC4)[nH]n3)nc(Oc3ccc4ccccc4c3)n2)cc1` [IIIb-1] gave a pKi at Aurora-2 of 6.00 to 7.00.

On to `COC(=O)c1cccc(Oc2nc(Nc3cc(C4CC4)[nH]n3)cc(-c3ccccc3)n2)c1` [IIIb-2], for which the pKi at Aurora-2 is 6.00 to 7.00.

Regarding `c1ccc2cc(Oc3nc(Nc4cc(C5CC5)[nH]n4)cc(N4CCOCC4)n3)ccc2c1` [IIIb-7], the pKi on GSK-3β (AA 1-420) and on Aurora-2 was 6.00 to 7.00 throughout. `CN1CCN(c2cc(Nc3cc(C4CC4)[nH]n3)nc(Oc3ccc4ccccc4c3)n2)CC1` [IIIb-8] had a pKi at Aurora-2 of 5.00 to 6.00.

For the molecule `Cc1cc(Nc2cc(-c3c(C)cccc3C)nc(Oc3ccc4ccccc4c3)n2)n[nH]1` [IIIb-9], the pKi at Aurora-2 was 5.00 to 6.00. In the case of `COc1nc(Nc2cc(C)[nH]n2)cc(N2CCN(C)CC2)n1` [IIIb-14], the pKi on GSK-3β (AA 1-420) was above 7.00; on Aurora-2 it was 5.00 to 6.00. For `CCC(=O)Nc1ccc(Oc2nc(Nc3cc(C)[nH]n3)cc(-c3ccccc3)n2)cc1` [IIIb-15], in that order: 6.00 to 7.00 and 6.00 to 7.00. As for `Cc1cc(Nc2cc(-c3ccccc3)nc(Oc3ccc(NC(=O)C4CC4)cc3)n2)n[nH]1` [IIIb-16], the pKi on GSK-3β (AA 1-420) and on Aurora-2 was 6.00 to 7.00 in each case.

For the molecule `Cc1cc(Nc2cc(-c3ccco3)[nH]n2)nc(Nc2ccc(Cl)cc2)n1` [IIIc-9, [2-(4-Chlorophenyl)amino-6-methyl-pyrimidin-4-yl]-[5-(furan-2-yl)-2H-pyrazol-3-yl]-amine], the pKi is above 7.00 at GSK-3β (AA 1-420) and 6.00 to 7.00 on Aurora-2. Take `CCc1cc(Nc2cc(C)[nH]n2)nc(Nc2nc3ccccc3[nH]2)n1` [IIIc-10, [2-(Benzimidazol-2-ylamino-)6-ethyl-pyrimidin-4-yl]-(5-methyl-2H-pyrazol-3-yl)-amine]: the pKi is 5.15 to 6.00 at GSK-3β (AA 1-420) and 5.00 to 6.00 at Aurora-2. As to `Cc1cc(Nc2cc(-c3ccccc3)[nH]n2)nc(Nc2ccc(Cl)cc2)n1` [IIIc-11, [2-(4-Chlorophenyl)amino-6-methyl-pyrimidin-4-yl]-(5-phenyl-2H-pyrazol-3-yl)-amine], the pKi was above 7.00 at GSK-3β (AA 1-420) and 6.00 to 7.00 on Aurora-2. Consider `CCc1cc(Nc2cc(C)[nH]n2)nc(Nc2ccc(Cl)cc2)n1` [IIIc-12, [2-(4-Chlorophenyl)amino-6-ethyl-pyrimidin-4-yl]-(5-methyl-2H-pyrazol-3-yl)-amine], for which the pKi on GSK-3β (AA 1-420) and at Aurora-2 was above 7.00 in each case. Take `c1ccc(Nc2nc(Nc3cc(-c4ccco4)[nH]n3)cc(-c3ccccc3)n2)cc1` [IIIc-15, [5-(Furan-2-yl)-2H-pyrazol-3-yl]-(6-phenyl-2-phenylamino-pyrimidin-4-yl)-amine]: the negative logarithm of the Ki (pKi) at GSK-3β (AA 1-420) and at Aurora-2 was above 7.00 throughout. Take `CCc1cc(Nc2cc(C)[nH]n2)nc(C(C)(C)c2ccccc2)n1` [IIId-20]: the values for the pKi at GSK-3β (AA 1-420) and on Aurora-2 were above 7.00 and 6.00 to 7.00, respectively.

For `COc1ccc(Sc2nc(Nc3cc(C4CC4)[nH]n3)c3ccccc3n2)cc1OC` [IIa-25, (5-Cyclopropyl-2H-pyrazol-3-yl)-[2-(3,4-dimethoxyphenylsulfanyl)-quinazolin-4-yl]-amine], the figures for the pKi at GSK-3β (AA 1-420) and at Aurora-2 were 5.15 to 6.00 and above 7.00, respectively. `CC(=O)Nc1ccc(Sc2nc(Nc3cc(C)[nH]n3)c3ccc([N+](=O)[O-])cc3n2)cc1` [IIa-53, [2-(4-Acetamido-phenylsulfanyl)-7-nitroquinazolin-4-yl]-(5-methyl-2H-pyrazol-3-yl)-amine] showed a pKi on Aurora-2 above 7.00.

In the case of `CC(=O)Nc1ccc(Sc2nc(Nc3cc(C)[nH]n3)c3ccc(NO)cc3n2)cc1` [IIa-56, [2-(4-Acetamido-phenylsulfanyl)-7-hydroxyaminoquinazolin-4-yl]-(5-methyl-2H-pyrazol-3-yl)-amine], the negative-log Ki (pKi) at Aurora-2 is above 7.00. Consider `Cc1cc(Nc2nc(Nc3cccc(Cl)c3)nc3ccccc23)n[nH]1` [IIc-11, [2-(3-Chlorophenylamino)-quinazolin-4-yl]-(5-methyl-2H-pyrazol-3-yl)-amine], for which the pKi at GSK-3β (AA 1-420) and on Aurora-2 was above 7.00 in each case. On to `c1ccc(CCNc2nc(Nc3cc(C4CC4)[nH]n3)c3ccccc3n2)cc1` [IIc-28, (5-Cyclopropyl-2H-pyrazol-3-yl)-(2-phenetylamino-quinazolin-4-yl)-amine], for which the pKi at GSK-3β (AA 1-420) was 6.00 to 7.00; on Aurora-2, above 7.00. Consider `COc1cccc(Nc2nc(Nc3cc(C)[nH]n3)c3ccccc3n2)c1` [IIc-56, [2-(3-Methoxyphenylamino)-quinazolin-4-yl]-(5-methyl-2H-pyrazol-3-yl)-amine], for which the figures for the negative-log Ki (pKi) at GSK-3β (AA 1-420) and on Aurora-2 were 6.00 to 7.00 and above 7.00, respectively.

For `COc1ccc(Nc2nc(Nc3cc(C)[nH]n3)c3ccccc3n2)cc1-c1ccccc1` [IIc-58, [2-(2-Methoxybiphenyl-5-ylamino)-quinazolin-4-yl]-(5-methyl-2H-pyrazol-3-yl)-amine], the pKi on GSK-3β (AA 1-420) was 5.15 to 6.00; at Aurora-2, above 7.00. For `Cc1cc(Nc2nc(Nc3ccc4oc(=O)c5ccccc5c4c3)nc3ccccc23)n[nH]1` [IIc-62], the melting point was 293 to 298 °C. For the same molecule, the pKi at GSK-3β (AA 1-420) was 5.15 to 6.00.

With `FC(F)(F)c1cccc(Nc2nc(Nc3n[nH]c4ccccc34)c3ccccc3n2)c1` [IIc-71, (1H-Indazol-3-yl)-[2-(3-trifluoromethylphenylamino)-quinazolin-4-yl]-amine], the pKi at GSK-3β (AA 1-420) is 5.15 to 6.00; on Aurora-2, 5.00 to 6.00. On to `Clc1ccccc1Nc1nc(Nc2n[nH]c3ccccc23)c2ccccc2n1` [IIc-75, [2-(2-Chloro-phenyl)-amino-quinazolin-4-yl]-(1H-indazol-3-yl)-amine], for which the pKi is 6.00 to 7.00 at GSK-3β (AA 1-420) and 5.00 to 6.00 at Aurora-2.

Turning to `FC(F)(F)c1ccccc1Nc1nc(Nc2n[nH]c3ccccc23)c2ccccc2n1` [IIc-76, (1H-Indazol-3-yl)-[2-(2-trifluoromethylphenylamino)-quinazolin-4-yl]-amine], the pKi was 6.00 to 7.00 at GSK-3β (AA 1-420) and 5.00 to 6.00 on Aurora-2.
